The results in this text go back to patent publication US11840535B2, “Alkynyl(hetero)aromatic compound for inhibiting protein kinase activity” (Shenzhen TargetRx, Inc., priority 2018, dated 2023).

Bounds are passed on as bounds.

Series [1] can be described thus: Metabolic stability evaluation, human liver microsome assay. It is filed as in vitro ADME. The following applies: pH 7.4, human liver microsomes 0.5 mg/mL, compound 1 μM, 37° C. The method, then:
Microsome assay: human liver microsomes: 0.5 mg/mL, Xenotech; coenzyme (NADPH/NADH): 1 mM, Sigma Life Science; magnesium chloride: 5 mM, 100 mM phosphate buffer (pH is 7.4).
Preparation of stock solution: Powder of the example compounds and the reference compound were accurately weighed, and dissolved to 5 mM with DMSO, respectively.
Preparation of phosphate buffer (100 mM, pH7.4): Pre-formulated 150 mL 0.5 M potassium dihydrogen phosphate and 700 mL 0.5 M dipotassium hydrogen phosphate were mixed, then the pH of the mixture was adjusted to 7.4 with 0.5 M dipotassium hydrogen phosphate. Before use, 5-fold dilution was made with ultra-pure water, and magnesium chloride was added to afford phosphate buffer (100 mM), which containing 100 mM potassium phosphate, 3.3 mM magnesium chloride, and pH is 7.4.
NADPH regeneration system solution (containing 6.5 mM NADP, 16.5 mM G-6-P, 3 U/mL G-6-P D, 3.3 mM magnesium chloride) was prepared and placed on wet ice before use.
Preparation of stop solution: Acetonitrile solution containing 50 ng/mL propranolol hydrochloride and 200 ng/mL tolbutamide (internal standard). 25057.5 μL phosphate buffer (pH 7.4) was taken into a 50 mL centrifuge tube, and 812.5 μL human liver microsome was added respectively, mixed well to afford liver microsome diluention with a protein concentration of 0.625 mg/mL.
Incubation of the sample: The stock solutions of the corresponding compounds were diluted to 0.25 mM with an aqueous solution containing 70% acetonitrile as working solutions for use. 398 μL of human liver microsome diluention was taken and added to a 96-well incubation plate (N=2), respectively, and 2 μL of 0.25 mM working solutions were then added respectively, and mixed well.
Determination of metabolic stability: 300 μL of pre-chilled stop solution was added to each well of a 96-well deep well plate and the plate was placed on ice as a stop plate. The 96-well incubation plate and NADPH regeneration system were placed in a 37° C. water bath, shook at 100 rpm, and pre-incubated for 5 min. 80 μL of incubation solution was taken from each well of the incubation plate and added to the stop plate, mixed well, and 20 μL of NADPH regeneration system solution was supplemented, the resulted solution was considered as sample at 0 min. Then 80 μL of NADPH regeneration system solution was added to each well of the incubation plate to start the reaction and started timing. The reaction concentration of the corresponding compound is 1 μM, and the protein concentration is 0.5 mg/mL. 100 μL reaction solution was taken at 10, 30, 90 min of reaction, respectively, and added into stop plate, the reaction was stopped with 3 min vortex. The stop plate was centrifuged at 5000×g, 4° C. for 10 min. 100 μL of supernatant was taken to a 96-well plate where 100 μL of distilled water was added in advance, mixed well, sample analysis was carried out by LC-MS/MS.
Data analysis: LC-MS/MS system was used to detect peak area of corresponding compound and internal standard, peak area ratio of compound to internal standard was calculated. The slope was measured by plotting the natural logarithm of the remaining percentage of the compound versus time, and t1/2 and CLint were calculated according to the following formula, wherein V/M means 1/protein concentration.
For orientation: Microsomes from liver hold many membrane-bound enzymes, among them those of drug oxidation.

For another series, the target named is ABL (Homo sapiens (Human), UniProt P00519). Nature of the series: Biochemical kinase analysis, ABL. The protocol: (§1) Reagents and materials: ABL (ThermoFisher, Cat. No PV3585), ABL^T315I (Thermo Fisher, Cat. No. PR7429B), ATP (Sigma, Cat. No. A7699-1G), DMSO (Sigma, Cat. No. D2650), 96-well plate (Corning, Cat. No. 3365), 384-well plate (Greiner, Cat. No. 784076), buffer solution (Thermo Fisher, Cat. No. PR4876B).
(§2) Compound formulation: The test compounds were dissolved in DMSO to prepare a 20 mM stock solution. Before use, the compounds were diluted in DMSO to 0.1 mM, and diluted into 11 concentrations with a 3-fold gradient. When addition, diluentions of 4-fold final concentration were then made with buffer solution.
(§3) Kinase assay method: After preparing the buffer, the enzyme was mixed with pre-formulated and diluted compounds of different concentrations in duplicate for each concentration, and placed at room temperature for 30 minutes. The corresponding substrate and ATP were added thereto, and reacted at room temperature for 60 minutes (both a negative and a positive control were set). After the reaction, antibody was added for detection, Envision detection was carried out after 60 minutes incubation at room temperature, and data was collected. Data analysis and fitting were made according to XLfit5 software, wherein, A represents IC50≤5 nM, B represents IC50 is 5-50 nM, C represents IC50 is 50-100 nM, D represents IC50>100 nM.

Series [2] has as its system Ba/F3 Bcr-Abl T315I cells. The series can be described thus: Cell proliferation analysis, Ba/F3 Bcr-Abl T315I. It is filed as cell-based. The protocol:
(§4) The inhibitory effect of the example compounds on Ba/F3, Ba/F3 Bcr-Abl T315I cell activity was determined.
(§5) Materials and reagents: RPMI-1640 medium (GIBCO, Catalog No. A10491-01), fetal bovine serum (GIBCO, Catalog No. 10099141), antibiotics (Penicillin-Streptomycin), IL-3 (PeproTech), promycin; cell lines: Ba/F3, Ba/F3 Bcr-Abl T315I (Purchased from American type culture collection, ATCC), live cell detection kit […] (Promega, Catalog No. G7572), 96-well black wall transparent flat bottom cell culture plate (Corning, Catalog No. 3340).
(§6) Test method: 1. Preparation of cell plate: Ba/F3, Ba/F3 Bcr-Abl T315I cells were respectively seeded in 96-well plates, and 8 ng/ml IL-3 was added to the Ba/F3 cells, and the cell plates were placed in a carbon dioxide incubator and cultured overnight. 2. The test compounds were dissolved in DMSO, 9 compound concentrations were made with a 3.16-fold gradient dilution in triplicate. 3. Treatment of the cells with compounds: The compounds were transferred to the cell plate with a starting concentration of 10 μM. The cell plate was placed in a carbon dioxide incubator for 3 days. 4. Detection: CellTiter-Glo agent was added to the cell plate, and incubated at room temperature for 30 minutes to stabilize the luminous signal. PerkinElmer Envision multi-label analyzer was used for reading, wherein A represents […], B represents IC50 is 10-20 nM, C represents IC50 is 20-50 nM, D represents IC50 is 50-1000 nM, E represents IC50>1000 nM.

Another series has as its target ABL^T315I (Homo sapiens (Human), UniProt P00519, T315I). Nature of the series: Biochemical kinase analysis, ABL T315I. The method, then: as §1, §2, §3
In the next series the test system is Ba/F3 parental cells. The series can be described thus: Cell proliferation analysis, Ba/F3 parental. The note with it: Mus musculus, BaF3, 72 h; 8 ng/ml IL-3, 3 days, CellTiter-Glo. It counts as cell-based. The protocol:
as §4, §5, §6
(In general: ATP-based viability assays read luminescence as a measure of living cells.)

For the compound `Cc1ccc(C(=O)Nc2ccc(CN3CCN(C)CC3)c(C(F)(F)F)c2)cc1C#Cc1cn(C(C)C)c2ncnc(N)c12` [Example 15, 3-((4-amino-7-isopropyl-7H-pyrrolo[2,3-d]pyrimidin-5-yl)ethynyl)-4-methyl-N-(4-((4-methylpiperazin-1-yl)methyl)-3-(trifluoromethyl)phenyl)benzamide], the microsomal CLint at 1 μM in series [1] (read-out: HLM Clint) turned out to be 11.8 µL/min/mg. Besides, the half-life at 1 μM in series [1] (read-out: HLM T1/2) was found to be 1.95 h. For the same compound, the IC50 (usually the concentration that gives 50% inhibition) is at most 5 nM at ABL; 20 to 50 nM in series [2] (Mus musculus, BaF3, 72 h, 3 days, CellTiter-Glo); at most 5 nM on ABL^T315I; above 1000 nM with Ba/F3 parental cells. In series [2] (ratio of Ba/F3 parental to Ba/F3 Bcr-Abl T315I), the “Selectivity [Ba/F3 (parental/Bcr-Abl ^T315I)]” value is recorded as 0~50.
